Test results: patent US20040147562A1, “Methods of treating conditions associated with an EDG-1 receptor” (priority 2002, published 2004)
Where two headings read alike, the source gives them in different places. Values belong to the molecule of their own block, whether it stands above or below them.

Tests used:
human Edg-1 receptors [1] = target: human Edg-1 receptors (Homo sapiens, UniProt P21453); test: Intracellular calcium (FLIPR) assay, HTC cells expressing Edg-1; assay type: cell-based; parameters: Edg 1 IC50 μM; fused on or other part: in the chimera reading: the third intracellular loop (i3) of Edg-3 (S1PR3) in place of Edg-1's own
Procedure: (§1) The compounds were tested in HTC cells expressing human Edg-1 receptors. […] The compounds were tested in this recombinant system first, and subsequently tested in cell lines expressing Edg-1 (in addition to other Edg receptors).
(§2) […] receptors such as Edg-1, couple to calcium effector pathways, and result in increases in intracellular calcium following receptor activation (An, 1998, J. Cell Biochem. Supp 30-31:147-157). This biological response lends itself to a very efficient, high-throughput screen using a Fluorescence Imaging Plate Reader (FLIPR; Molecular Devices, Sunnyvale, Calif.). The FLIPR system is a real-time, cell-based assay system with continuous fluorescence detection using a cooled CCD camera. The FLIPR system was used to develop an Edg-1 receptor screen. Rat hepatoma cells stably expressing Edg-1/3i3 chimera or Edg-1 and Gqi were plated on 384-well plates and loaded with a calcium dye loading kit (Molecular Devices, Sunnyvale, Calif.) for 1 hour at room temperature. Cells were then placed on the FLIPR^384 (Molecular Devices, Sunnyvale, Calif.) and excited by an argon laser at 488 nm. The data for the entire 384-well plate was updated every second. An integrated robotic pipettor allowed for simultaneous compound addition into each individual well in the plate.

murine CD4 T cells = test: Murine CD4 T cell chemotactic response to exodus-2; assay type: cell-based
Procedure: To assess this modulation and to test the effects of Edg-1 agonists and antagonists on this effect, murine CD4 T cells chemotactic responses to exodus-2 were tested in the presence of S1P and the Edg-1 agonist 104. These experiments were performed according to the migration and invasion assay protocols described in Section 7.12, below.
The effects of Edg-1 antagonists on S1P regulation of the chemotactic response to exodus-2 were also assessed. This experiment was performed according to the migration and invasion assay protocols described in Section 7.12, below. […] Thus, these Edg-1 antagonists can antagonize both aspects of the regulation by S1P of exodus-2-mediated chemotaxis.
(§3) Cells were plated in a 24 well format using Fluoroblok filter insert plates ([…] pore size) or Fluoroblok matrigel coated filter insert plates (Becton Dickinson, San Diego, Calif.). The assay was a modified Boyden Chamber assay in which a cell suspension (1×10^5 cells/ml) was prepared in serum free medium and added to the top chamber. LPA or S1P (doses ranged from 0.1-10 μM in serum free medium) was added to the bottom chamber. Following a 20-24 hour incubation period, the number of cells migrating or invading into the lower chamber was quantitated by transferring the filter insert into a fresh 24-well plate containing 4 μg/ml calcein AM (Molecular Probes, Sunnyvale, Calif.) in Hank's Balanced Salt Solution and staining for one hour.
(§4) Detection was via fluorescent readout at 450 nm excitation/530 nm emission using a fluorimeter. The level of fluorescence correlated with cell number.

[2] = tested on: mouse splenic CD4 T cells; test: Lymphocyte migration in mouse dorsal air-pouch model; assay type: in vivo; settings: CD4 T cells treated ex vivo, given intraperitoneally, lavage after 24 hours; S1P 1 μM; FIG. 15
Procedure: To test migration of mouse T cells in vivo, the ability of exodus-2 to attract mouse lymphocytes was assessed in the mouse dorsal air-pouch model. In these experiments, 0.5 ml 1 μM exodus-2 was introduced into a dorsal air-pouch produced by injecting 5 ml of filtered air subcutaneously. Mouse splenic CD4 T cells were fluorescently labeled with FM-DiI (Molecular Probes, Inc., Eugene, Oreg.), then treated with S1P (1 μM), 102, or 104. The treated CD4T cells were introduced into the peritoneal cavity. After 24 hours, lavage (1 ml) from the dorsal air pouch was assayed for fluorescence.

[3] = tested on: human peripheral blood mononuclear cells; test: Migration of human peripheral blood mononuclear cells; assay type: cell-based; settings: chemoattractant; FIG. 9, 13
Procedure: (§5) S1P is a strong chemoattractant to human PBMCs. […] Several migration assays were performed to test this hypothesis and to determine the effect of Edg-1 agonists and antagonists on S1P mediated chemotaxis. The migration assays were performed according to the protocol described in Section 7.12, below. The results of theses assays are presented in FIG. 6, FIG. 7, FIG. 8, FIG. 9 and FIG. 13.
as §3, §4
Human PBMCs are isolated from the buffy coats of healthy donors from the Stanford Blood Center. […]

mouse T cells = test: Mouse T cell migration in Transwell chambers with matrigel; assay type: cell-based; settings: stimulant in bottom chamber; S1P at high concentrations; FIG. 14
Procedure: To further elucidate the role of the Edg-1 receptor in lymphocyte trafficking, migration of mouse T cells was analyzed in both in vitro and in vivo models. Migration of mouse T cells was first tested in Transwell chambers (Costar, Cambridge, Mass.) with polycarbonate fibers having a pore width of 8 μm, separated by a layer of matrigel. Stimulants S1P or exodus-2 were separately added to the bottom chamber. The effects of exodus-2 were tested alone, with S1P, and with S1P and Edg-1 antagonists 101 and 102.

[4] = tested on: human umbilical vein endothelial cells; test: Trans-matrigel chemotaxis / invasion assay with HUVECs (modified Boyden chamber); assay type: cell-based; settings: HUVECs, trans-matrigel; FIG. 10
Procedure: In addition to Edg-1, other Edg receptors are also implicated in S1P stimulated chemotaxis, including Edg-3 and Edg-6. To assess the relative roles of the Edg-1 receptors and Edg-3 receptors in S1P stimulated chemotaxis, the ability of S1P to evoke trans-matrigel chemotaxis was tested in the presence of the Edg-1 antagonist 101, the Edg-3 antagonist 301, and the combination of 101 and 301. These experiments were performed according to the migration and invasion assay protocols described in Section 7.12, below. The Edg-3 antagonist 301, 3-Methyl-2-phenyl-quinoline-4-carboxylic acid 4-fluoro-benzylamide, is extensively described in co-pending U.S. application Ser. No. 10/390,426, which is incorporated by reference in its entirety. 301 is identified as compound 101 in U.S. application Ser. No. 10/390,426. Further, 301 is commercially available from Specs (The Netherlands) as compound number AK-968/12971392.
as §5, §3, §4

Edg-8 = target: T1, Edg-8 (Homo sapiens, UniProt Q9H228); test: Intracellular calcium (FLIPR) assay, HTC cells expressing Edg-8; assay type: cell-based; settings: Table 2; S1P-stimulated
T1 construct: expressed in transfected cells; host or cells: HTC rat hepatoma cells
T1 sequence (Q9H228 whole entry): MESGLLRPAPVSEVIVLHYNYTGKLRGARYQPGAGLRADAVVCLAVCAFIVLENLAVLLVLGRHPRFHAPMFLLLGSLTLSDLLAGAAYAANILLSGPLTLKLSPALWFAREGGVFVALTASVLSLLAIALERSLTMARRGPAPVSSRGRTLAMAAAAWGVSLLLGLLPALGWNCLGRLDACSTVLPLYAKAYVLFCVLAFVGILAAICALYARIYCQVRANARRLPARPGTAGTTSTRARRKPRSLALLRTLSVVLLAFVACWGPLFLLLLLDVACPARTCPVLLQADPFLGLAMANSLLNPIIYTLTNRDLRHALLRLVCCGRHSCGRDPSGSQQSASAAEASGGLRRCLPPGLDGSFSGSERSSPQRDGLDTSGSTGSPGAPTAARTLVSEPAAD

Edg-4 = Edg-4 (Homo sapiens, UniProt Q9HBW0); test: Intracellular calcium (FLIPR) assay, HTC cells expressing Edg-4; assay type: cell-based; settings: Table 2; LPA-stimulated
Sequence of Edg-4 (Q9HBW0 1-340 limits assumed): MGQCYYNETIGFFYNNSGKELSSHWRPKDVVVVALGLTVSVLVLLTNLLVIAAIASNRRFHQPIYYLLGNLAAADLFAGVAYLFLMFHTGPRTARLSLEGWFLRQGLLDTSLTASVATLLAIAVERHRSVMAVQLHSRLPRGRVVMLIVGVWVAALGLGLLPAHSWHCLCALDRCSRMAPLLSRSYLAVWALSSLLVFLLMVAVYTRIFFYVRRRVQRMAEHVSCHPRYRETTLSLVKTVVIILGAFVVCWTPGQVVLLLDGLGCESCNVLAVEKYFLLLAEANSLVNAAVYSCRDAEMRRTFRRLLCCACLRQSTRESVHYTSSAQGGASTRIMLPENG

Edg-7 = target: T2, Edg-7 (Homo sapiens, UniProt Q9UBY5); test: Intracellular calcium (FLIPR) assay, HTC cells expressing Edg-7; assay type: cell-based; settings: Table 2; LPA-stimulated
T2 construct: expressed in transfected cells; host or cells: HTC rat hepatoma cells
T2 sequence (Q9UBY5 1-353): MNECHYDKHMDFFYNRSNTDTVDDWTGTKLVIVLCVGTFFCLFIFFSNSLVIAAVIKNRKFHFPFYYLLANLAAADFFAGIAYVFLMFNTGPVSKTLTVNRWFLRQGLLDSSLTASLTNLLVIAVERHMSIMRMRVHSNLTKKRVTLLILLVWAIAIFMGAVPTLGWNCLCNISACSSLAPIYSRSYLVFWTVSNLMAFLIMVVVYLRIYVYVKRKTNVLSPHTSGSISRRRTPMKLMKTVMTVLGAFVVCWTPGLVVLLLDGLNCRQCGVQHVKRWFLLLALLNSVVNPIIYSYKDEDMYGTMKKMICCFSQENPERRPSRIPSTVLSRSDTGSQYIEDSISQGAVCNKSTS

Edg-2 = target: T3, Edg-2 (Homo sapiens, UniProt Q92633); test: Intracellular calcium (FLIPR) assay, HTC cells expressing Edg-2; assay type: cell-based; settings: Table 2; LPA-stimulated
T3 construct: expressed in transfected cells; host or cells: HTC rat hepatoma cells
T3 sequence (Q92633 whole entry): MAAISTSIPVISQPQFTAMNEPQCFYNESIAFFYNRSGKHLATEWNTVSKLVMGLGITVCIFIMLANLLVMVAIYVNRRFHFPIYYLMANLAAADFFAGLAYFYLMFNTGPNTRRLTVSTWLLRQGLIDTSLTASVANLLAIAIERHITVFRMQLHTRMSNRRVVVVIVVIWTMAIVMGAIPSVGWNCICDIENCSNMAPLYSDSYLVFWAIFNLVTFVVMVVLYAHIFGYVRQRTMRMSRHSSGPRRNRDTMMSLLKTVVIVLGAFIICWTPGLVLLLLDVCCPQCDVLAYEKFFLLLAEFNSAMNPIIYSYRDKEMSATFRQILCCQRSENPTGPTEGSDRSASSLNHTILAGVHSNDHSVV

Edg-3 = target: T4, Edg-3 (Homo sapiens, UniProt Q99500); test: Intracellular calcium (FLIPR) assay, HTC cells expressing Edg-3; assay type: cell-based; settings: Table 2; S1P-stimulated
T4 construct: expressed in transfected cells; host or cells: HTC rat hepatoma cells
T4 sequence (Q99500 whole entry): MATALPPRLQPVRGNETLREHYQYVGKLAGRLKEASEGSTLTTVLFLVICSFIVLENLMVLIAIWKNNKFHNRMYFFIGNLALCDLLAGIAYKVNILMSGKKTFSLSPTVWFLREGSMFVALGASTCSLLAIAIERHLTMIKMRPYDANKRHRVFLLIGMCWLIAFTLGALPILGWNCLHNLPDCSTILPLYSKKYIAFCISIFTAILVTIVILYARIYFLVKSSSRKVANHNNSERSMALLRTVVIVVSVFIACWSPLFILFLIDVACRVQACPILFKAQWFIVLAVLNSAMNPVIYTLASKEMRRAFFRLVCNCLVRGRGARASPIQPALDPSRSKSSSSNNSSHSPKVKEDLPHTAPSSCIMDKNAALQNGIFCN

human Edg-1 receptors [5] = test: Intracellular calcium (FLIPR) assay, HTC cells expressing Edg-1; assay type: cell-based; settings: Edg-1 relative to other Edg receptors, inhibition (Table 2)
Procedure: as §1, §2

Edg-5 = target: T5, Edg-5 (Homo sapiens, UniProt O95136); test: Intracellular calcium (FLIPR) assay, HTC cells expressing Edg-5; assay type: cell-based; settings: Table 2; S1P-stimulated
T5 construct: expressed in transfected cells; host or cells: HTC rat hepatoma cells
T5 sequence (O95136 whole entry): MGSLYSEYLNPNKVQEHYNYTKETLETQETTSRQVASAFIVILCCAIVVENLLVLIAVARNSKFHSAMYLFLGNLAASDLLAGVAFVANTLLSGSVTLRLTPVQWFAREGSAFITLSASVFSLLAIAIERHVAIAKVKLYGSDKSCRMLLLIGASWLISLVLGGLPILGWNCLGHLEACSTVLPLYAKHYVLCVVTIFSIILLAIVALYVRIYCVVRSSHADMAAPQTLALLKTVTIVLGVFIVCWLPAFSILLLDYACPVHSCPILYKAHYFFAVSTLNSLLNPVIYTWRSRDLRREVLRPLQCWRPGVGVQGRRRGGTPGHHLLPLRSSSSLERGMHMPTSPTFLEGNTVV

Edg-6 = target: T6, Edg-6 (Homo sapiens, UniProt O95977); test: Intracellular calcium (FLIPR) assay, HTC cells expressing Edg-6; assay type: cell-based; settings: Table 2; S1P-stimulated
T6 construct: expressed in transfected cells; host or cells: HTC rat hepatoma cells
T6 sequence (O95977 1-384): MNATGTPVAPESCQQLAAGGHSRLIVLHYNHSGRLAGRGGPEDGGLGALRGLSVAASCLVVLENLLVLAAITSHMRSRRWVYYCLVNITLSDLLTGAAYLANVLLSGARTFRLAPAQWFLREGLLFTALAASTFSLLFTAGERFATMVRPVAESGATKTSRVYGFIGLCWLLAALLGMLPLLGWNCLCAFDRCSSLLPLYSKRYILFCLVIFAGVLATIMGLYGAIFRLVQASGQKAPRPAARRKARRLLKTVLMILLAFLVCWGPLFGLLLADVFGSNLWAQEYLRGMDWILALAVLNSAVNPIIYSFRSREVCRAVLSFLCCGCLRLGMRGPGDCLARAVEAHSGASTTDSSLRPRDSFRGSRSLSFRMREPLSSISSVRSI

[6] = Table 1, Edg-1 modulators, read-out: IC50

- IC50 (human Edg-1 receptors [1]; [6]): 3.51 µM
Molecule: O=C(c1cccnc1)N1N=C(c2ccccc2)CC1(O)C(F)(F)F (centres unmarked) [Compound 107]

- IC50 (human Edg-1 receptors [1]; [6]): 5.08 µM
Molecule: O=C(c1ccccc1)N1N=C(c2ccccc2)CC1(O)C(F)(F)F (centres unmarked) [Compound 111]

- IC50 (human Edg-1 receptors [1]; [6]): 5.92 µM
Molecule: O=C(c1cccnc1)N1N=C(c2ccc(F)cc2)CC1(O)C(F)(F)F (centres unmarked) [Compound 112]

Molecule: CCCCCCCCc1ccc(CCC(N)(CO)CO)cc1 [FTY720, reference compound]
- effect on S1P-mediated desensitization of the chemotactic response to exodus-2 (murine CD4 T cells; high concentrations of S1P, FIG. 12): reverse S1P-mediated desensitization
- effect on S1P-mediated stimulation of the chemotactic response to exodus-2 (murine CD4 T cells; moderate concentrations of S1P, FIG. 12): inhibit S1P-mediated stimulation

- IC50 (human Edg-1 receptors [1]; [6]): 3.94 µM
Molecule: Nc1ccc(C(=O)N2N=C(c3ccc(F)cc3)CC2(O)C(F)(F)F)cc1 (centres unmarked) [Compound 109]

- IC50 (human Edg-1 receptors [1]; [6]): 1.74 µM
Molecule: CCc1ccc(C2=NN(C(=O)c3cccnc3)C(O)(C(F)(F)F)C2)cc1 (centres unmarked) [Compound 106]

Molecule: CCCCCCCCCCCCC/C=C/[C@@H](O)[C@@H](N)COP(=O)(O)O [Compound S1P, sphingosine-1-phosphate, reference compound]
- effect on chemotaxis of murine CD4 T cells to exodus-2 (murine CD4 T cells; low and high concentrations desensitize, moderate stimulate, FIG. 11): bell-shaped dose dependant response curve
- migration of treated lymphocytes to exodus-2 in dorsal air-pouch [2]: desensitizes the lymphocytes to attraction by exodus-2
- migration of human peripheral blood mononuclear cells [3]: attracts human PMBCs in a dose dependent manner
- stimulation of T cell migration by stimulant alone (mouse T cells): do not stimulate T cell migration

Molecule: Cc1c(-c2ccccc2)nc2ccccc2c1C(=O)NCc1ccc(F)cc1 [Compound 301, 3-Methyl-2-phenyl-quinoline-4-carboxylic acid 4-fluoro-benzylamide, reference compound]
- inhibition of S1P-stimulated chemotaxis [4]: inhibit S1P-stimulated chemotaxis

- IC50 (human Edg-1 receptors [1]; [6]): 1.29 µM
Molecule: O=C(c1cccnc1)N1N=C(C(F)(F)F)CC1(O)c1ccc(Cl)cc1 (centres unmarked) [Compound 105]

- IC50 (human Edg-1 receptors [1]; Table 2, inhibition of S1P response, read-out: Edg 1 IC50): 0.74 µM
- IC50 (Edg-8): > 20 µM
- IC50 (Edg-4): > 20 µM
- IC50 (Edg-7): > 20 µM
- IC50 (Edg-2): > 20 µM
- IC50 (Edg-3): > 20 µM
- IC50 (Edg-5): > 20 µM
- IC50 (Edg-6): > 20 µM
Molecule: COc1cc2c(cc1OC)[C@H]1CN3CCc4cc(OC)c(OC)cc4[C@H]3CN1CC2 [Compound 103]
- Fold Selectivity (human Edg-1 receptors [5]): >27.0 Fold

- IC50 (human Edg-1 receptors [1]; [6]): 3.56 µM
Molecule: Nc1ccc(C(=O)N2N=C(c3ccccc3)CC2(O)C(F)(F)F)cc1 (centres unmarked) [Compound 108]

- IC50 (human Edg-1 receptors [1]; [6]): 4.58 µM
Molecule: Nc1ccc(C(=O)N2N=C(C(F)(F)F)CC2(O)c2ccc(Br)cc2)cc1 (centres unmarked) [Compound 110]

- IC50 (human Edg-1 receptors [1]; [6]): 6.02 µM
Molecule: O=C(c1ccccc1F)N1N=C(C(F)(F)F)CC1(O)c1ccc(Cl)cc1 (centres unmarked) [Compound 113]

B1: exodus-2: cytokine, chemoattractant for lymphocytes (protein, UniProt O00585 24-134, looked up)
C-C motif chemokine 21: SDGGAQDCCLKYSQRKIPAKVVRSYRKQEPSLGCSIPAILFLPRKRSQAELCADPKELWVQQLMQHLDKTPSPQKPAQGCRKDRGASKTGKKGKGSKGCKRTERSQTPKGP
- stimulation of T cell migration by stimulant alone (mouse T cells): does stimulate T cell migration
